Like-named read-outs stand apart in the source and are kept apart here.
Experiments:
S. coelicolor M145 = assay: MIC of vancomycin on MM agar plates with added D-Ala or L-Ala; type: cell-based, Streptomyces coelicolor; details: for MIC: Streptomyces coelicolor
Experimental: The naturally vancomycin-resistant model organism S. coelicolor M145 was used as the initial test system. The strain was grown on solid minimal medium (MM) agar plates with increasing amounts of D-Ala and vancomycin. D-Ala was thereby added in concentrations of 5, 10 and 50 mM and the effect on the MIC of vancomycin assessed. As a first control, L-Ala was added and, as a second control, no amino acids were added. […] This was not altered when the culture media were supplemented with up to 50 mg/ml L-Ala (Table 1 and FIG. 6).
Escherichia coli strains JM109 (Sambrook et al., 1989) and ET12567 (Kieser et al., 2000) were used for routine cloning procedures and for extracting non-methylated DNA, respectively. Cells of E. coli were grown in Luria-Berani broth (LB) at 37° C. Streptomyces coelicolor A3(2) M145 was the parent of all mutants described in this work. All media and routine Streptomyces techniques were carried out as described (Kieser et al., 2000). SFM (soy flour mannitol) agar plates were used for propagating S. coelicolor strains and to prepare spore suspensions. For liquid-grown cultures, S. coelicolor mycelia were grown in normal minimal media with phosphate (NMMP) supplemented with 1% (w/v) mannitol as the sole carbon source. The MIC of vancomycin against S. coelicolor M145 and its mutant derivatives were determined by growth on minimal media (MM) agar plates supplemented with 1% mannitol as the sole carbon source, and 0, 2, 4, 8, 16, 32, 64, 128, 256 or 512 μg/ml vancomycin, in combination with 0, 1, 5, 10 or 50 mM of D-Ala or L-Ala. The vanX deletion mutants have been tested with 1, 5, 10, 50 and 100 μM D-Ala and L-Ala.

S. coelicolor LAG2 = assay: LC-MS analysis of peptidoglycan precursors, including time course after alanine addition; type: cell-based, Streptomyces coelicolor
Experimental: In order to get more insights into the synthesis of vancomycin-sensitive (i.e., wild-type) or the alternate vancomycin-resistant peptidoglycan, the pool of peptidoglycan precursors was analyzed by Liquid Chromatography coupled to Mass Spectrometry (LC-MS). When cells produce wild-type PG, only the MurNac-pentapeptide with a D-Ala-D-Ala terminus are detected, while vancomycin-resistant PG precursors have a D-Ala-D-Lac terminus. To analyze the precursors produced in S. coelicolor M145 and its mutant derivatives LAG1 (Δddl) and LAG2 (Δddl vanS::IS466A) in the presence or absence of vancomycin, the strains were grown until exponential phase, after which the cultures were harvested, washed and the precursors extracted with 5% TCA. The supernatants were desalted, concentrated and analyzed by LC-MS (see Materials and Methods section).
To investigate what the effect would be of the addition of excess of D-Ala on the accumulation of wild-type precursors, a time-course experiment was performed to follow the effect of D-Ala addition on the ratio between wild-type and resistant precursors. Therefore, 300 ml liquid-grown NMMP cultures were supplemented with either D-Ala or L-Ala (control) at 50 mM end concentration, and 10 ml samples were collected prior to and 1, 5, 15, 30, 60, 120 and 180 minutes after the addition of either alanine stereoisomer. Samples were immediately filtered by vacuum filtration, washed in 0.9% NaCl, biomass scraped off the filter, added to a tube containing 5% TCA and samples prepared as described above. […] However, addition of 50 mM D-Ala triggered the production of small amounts of wt precursor (1%) within 1 minute. After 15 minutes, this amount had increased to 4%, which appeared to be close to the maximum, with levels of wt precursors never exceeding 5%.
For the precursor isolation and identification, a modification of the method described previously by Hong and colleagues (Hong et al., 2004) was used. 10 μg vancomycin was added to the strains at the moment of inoculation. The strains were grown in NMMP (1% (w/v) Mannitol, 50 mM MgCl2) until mid-log phase (OD-0.3-0.4) and mycelia were harvested by centrifugation at 4° C. and washed in 0.9% NaCl. The mycelium was extracted with 5% cold trichloric acid (TCA) for 30 minutes at 4° C. This was centrifuged and the supernatant desalted on a Sephadex G-25 column (Illustra NAP-10 Columns, GE Healthcare, Pittsburgh), and concentrated by rotary evaporation. The concentrated precursors were dissolved in HPLC-grade water and separated by LC-MS using a gradient of 0-20% acetonitrile in water with 0.1% TFA. The elution was monitored at 254 nm and monitored by the sizes eluted (1193.8-1195.3).
For the measurement over time, the protocol was adjusted in the following way: 300 ml NMMP cultures were grown until exponential phase, at which point a 10 ml sample was taken (sample t=0) and 50 mM of D-Ala or L-Ala was added, followed by further sampling after 1, 5, 15, 30, 60, 120 and 180 minutes. Samples were rapidly filtered with a vacuum pump and washed with 0.9% (w/v) NaCl, mycelia scraped off the filter and transferred to 5% TCA.

SMILES: CN[C@H](CC(C)C)C(=O)N[C@H]1C(=O)N[C@@H](CC(N)=O)C(=O)N[C@H]2C(=O)N[C@H]3C(=O)N[C@H](C(=O)N[C@H](C(=O)O)c4cc(O)cc(O)c4-c4cc3ccc4O)[C@H](O)c3ccc(c(Cl)c3)Oc3cc2cc(c3O[C@@H]2O[C@H](CO)[C@@H](O)[C@H](O)[C@H]2O[C@H]2C[C@](C)(N)[C@H](O)[C@H](C)O2)Oc2ccc(cc2Cl)[C@H]1O [vancomycin]
- reduction of the MIC of vancomycin (S. coelicolor M145; M145, 10 mM D-Ala): 4 fold
- reduction of the MIC of vancomycin (S. coelicolor M145; M145, 50 mM D-Ala): 32 fold
- MIC (S. coelicolor M145; M145, read-out: MIC of vancomycin, M145, 0 mM D-Ala): 128 µg/mL
- MIC (S. coelicolor M145; M145, read-out: MIC of vancomycin, M145, 5 mM D-Ala): 32 µg/mL
- MIC (S. coelicolor M145; M145, read-out: MIC of vancomycin, M145, 10 mM D-Ala): 32 µg/mL
- MIC (S. coelicolor M145; M145, read-out: MIC of vancomycin, M145, 50 mM D-Ala): 4 µg/mL
- precursors terminated with D-Ala-D-Lac (S. coelicolor LAG2; LAG2 grown with vancomycin): 99.8%
- wild-type (vancomycin-sensitive) peptidoglycan (S. coelicolor LAG2; LAG2 with vancomycin (FIG. 3B)): less than 1%

Reference: US20190000789A1, “COMPOSITION AND METHOD FOR TREATING INFECTIONS CAUSED BY VANCOMYCIN-RESISTANT INFECTIOUS AGENTS IN A SUBJECT” (priority 2015, published 2019)
